# System: MV-4-11 cells
# Test: Gene expression microarray analysis (Affymetrix PrimeView) and GSEA
# Assay type: cell-based, human
# Design: RFU PODN (11730768_x_at) / Fold change /veh PODN (11730768_x_at) / RFU LINC00158 (11744669_a_at) / Fold change /veh LINC00158 (11744669_a_at) / RFU DUSP10 (11751237_a_at) / Fold change /veh DUSP10 (11751237_a_at) / RFU ID3 (11757404_x_at) / Fold change /veh ID3 (11757404_x_at) / RFU PLEKHG5 (11737974_s_at) / Fold change /veh PLEKHG5 (11737974_s_at) / RFU LRRC4B (11730491_at) / Fold change /veh LRRC4B (11730491_at) / RFU GIMAP4 (11747438_a_at) / Fold change /veh GIMAP4 (11747438_a_at) / RFU KRT8 (11758183_x_at) / Fold change /veh KRT8 (11758183_x_at) / RFU CNN1 (11734310_a_at) / Fold change /veh CNN1 (11734310_a_at) / RFU VPS37D (11726825_at) / Fold change /veh VPS37D (11726825_at) / RFU C10orf10 (11716522_x_at) / Fold change /veh C10orf10 (11716522_x_at) / RFU KIR2DL2 /// KIR2DL4 /// KIR2DL5A /// KIR2DL5B /// KIR2DS1 /// KIR2DS2 /// KIR2DS3 /// KIR2DS4 /// KIR3DL3 /// KIR3DL3 /// KIR3DS1 (11738374_at) / Fold change /veh KIR2DL2 /// KIR2DL4 /// KIR2DL5A /// KIR2DL5B /// KIR2DS1 /// KIR2DS2 /// KIR2DS3 /// KIR2DS4 /// KIR3DL3 /// KIR3DL3 /// KIR3DS1 (11738374_at) / RFU C1QL1 (11718748_at) / Fold change /veh C1QL1 (11718748_at) / RFU TMPRSS4 (11747572_a_at) / Fold change /veh TMPRSS4 (11747572_a_at) / RFU HAMP (11756126_x_at) / Fold change /veh HAMP (11756126_x_at) / RFU RNFT2 (11725882_a_at) / Fold change /veh RNFT2 (11725882_a_at) / RFU NR4A2 (11747474_a_at) / Fold change /veh NR4A2 (11747474_a_at) / RFU ABCC12 (11746883_a_at) / Fold change /veh ABCC12 (11746883_a_at) / RFU TMEM136 (11760407_x_at) / Fold change /veh TMEM136 (11760407_x_at) / RFU CLDN22 /// WWC2 (11732394_at) / Fold change /veh CLDN22 /// WWC2 (11732394_at) / RFU HLA-DPB1 (11760878_x_at) / Fold change /veh HLA-DPB1 (11760878_x_at) / RFU SPINT1 (11716480_a_at) / Fold change /veh SPINT1 (11716480_a_at) / RFU GAP43 (11754022_s_at) / Fold change /veh GAP43 (11754022_s_at) / RFU A4GNT (11735810_at) / Fold change /veh A4GNT (11735810_at) / RFU PRB3 (11715151_x_at) / Fold change /veh PRB3 (11715151_x_at) / RFU TUBB4B (11761932_at) / Fold change /veh TUBB4B (11761932_at) / RFU CAPN14 (11732068_a_at) / Fold change /veh CAPN14 (11732068_a_at) / RFU TMCC2 (11721928_a_at) / Fold change /veh TMCC2 (11721928_a_at) / RFU IRGQ (11745062_a_at) / Fold change /veh IRGQ (11745062_a_at) / RFU FAM174B (11720279_a_at) / Fold change /veh FAM174B (11720279_a_at) / RFU TMPRSS4 (11748680_a_at) / Fold change /veh TMPRSS4 (11748680_a_at) / RFU FAM212B (11763350_a_at) / Fold change /veh FAM212B (11763350_a_at) / RFU PLEKHG5 (11743358_a_at) / Fold change /veh PLEKHG5 (11743358_a_at) / RFU ZSCAN30 (11745921_a_at) / Fold change /veh ZSCAN30 (11745921_a_at) / RFU CMKLR1 (11741424_a_at) / Fold change /veh CMKLR1 (11741424_a_at) / RFU LOC101060620 /// MAPK8IP1 (11723275_at) / Fold change /veh LOC101060620 /// MAPK8IP1 (11723275_at) / RFU SPTSSB (11747773_x_at) / Fold change /veh SPTSSB (11747773_x_at) / RFU PRSS12 (11739890_at) / Fold change /veh PRSS12 (11739890_at) / RFU BIN1 (11741810_x_at) / Fold change /veh BIN1 (11741810_x_at) / RFU WNT11 (11732464_a_at) / Fold change /veh WNT11 (11732464_a_at) / RFU C10orf10 (11716521_a_at) / Fold change /veh C10orf10 (11716521_a_at) / RFU C5orf56 (11738089_at) / Fold change /veh C5orf56 (11738089_at) / RFU CYB561 (11721691_x_at) / Fold change /veh CYB561 (11721691_x_at) / RFU ANKRD19P (11752326_a_at) / Fold change /veh ANKRD19P (11752326_a_at) / RFU OR2T12 /// OR2T33 /// OR2T8 (11738714_s_at) / Fold change /veh OR2T12 /// OR2T33 /// OR2T8 (11738714_s_at) / RFU VCAN (11748164_a_at) / Fold change /veh VCAN (11748164_a_at) / RFU JSRP1 (11732532_at) / Fold change /veh JSRP1 (11732532_at) / RFU KRTAP10-11 (11738290_x_at) / Fold change /veh KRTAP10-11 (11738290_x_at) / RFU MYO3A (11730013_a_at) / Fold change /veh MYO3A (11730013_a_at) / RFU EBF3 (11725865_a_at) / Fold change /veh EBF3 (11725865_a_at) / RFU CAMK2N1 (11719241_x_at) / Fold change /veh CAMK2N1 (11719241_x_at) / RFU C5orf56 (11738088_a_at) / Fold change /veh C5orf56 (11738088_a_at) / RFU OLFML3 (11715873_a_at) / Fold change /veh OLFML3 (11715873_a_at) / RFU LOC100653217 /// NTM (11731650_a_at) / Fold change /veh LOC100653217 /// NTM (11731650_a_at) / RFU MAPK11 (11762145_a_at) / Fold change /veh MAPK11 (11762145_a_at) / RFU FIZ1 (11724087_x_at) / Fold change /veh FIZ1 (11724087_x_at) / RFU OASL (11726364_x_at) / Fold change /veh OASL (11726364_x_at) / RFU SOX15 (11748057_x_at) / Fold change /veh SOX15 (11748057_x_at) / RFU CD79A (11719716_a_at) / Fold change /veh CD79A (11719716_a_at) / RFU HIST1H1D (11736915_at) / Fold change /veh HIST1H1D (11736915_at) / RFU CASKIN2 (11723855_a_at) / Fold change /veh CASKIN2 (11723855_a_at) / RFU LOC730098 (11760151_x_at) / Fold change /veh LOC730098 (11760151_x_at) / RFU OR4N2 (11742367_at) / Fold change /veh OR4N2 (11742367_at) / RFU PRRT2 (11749266_a_at) / Fold change /veh PRRT2 (11749266_a_at) / RFU SNX32 (11753110_a_at) / Fold change /veh SNX32 (11753110_a_at) / RFU CDHR5 (11726645_a_at) / Fold change /veh CDHR5 (11726645_a_at) / RFU RCAN1 (11760418_a_at) / Fold change /veh RCAN1 (11760418_a_at) / RFU FAM167A (11723789_a_at) / Fold change /veh FAM167A (11723789_a_at) / RFU FAM26E (11764081_at) / Fold change /veh FAM26E (11764081_at) / RFU ISYNA1 (11749810_s_at) / Fold change /veh ISYNA1 (11749810_s_at) / RFU ACY1 (11761880_at) / Fold change /veh ACY1 (11761880_at) / RFU 11764098_at / Fold change /veh 11764098_at / RFU SAMD14 (11745864_x_at) / Fold change /veh SAMD14 (11745864_x_at) / RFU NPB (11741838_a_at) / Fold change /veh NPB (11741838_a_at) / RFU TMPRSS6 (11731388_a_at) / Fold change /veh TMPRSS6 (11731388_a_at) / RFU KRTAP10-2 (11738614_at) / Fold change /veh KRTAP10-2 (11738614_at) / RFU ARHGAP8 /// PRR5-ARHGAP8 (11727945_x_at) / Fold change /veh ARHGAP8 /// PRR5-ARHGAP8 (11727945_x_at) / RFU KRTAP5-7 /// NADSYN1 (11734609_at) / Fold change /veh KRTAP5-7 /// NADSYN1 (11734609_at) / RFU RASL12 (11751679_a_at) / Fold change /veh RASL12 (11751679_a_at) / RFU CDKN2B (11736163_a_at) / Fold change /veh CDKN2B (11736163_a_at) / RFU PRF1 (11729649_at) / Fold change /veh PRF1 (11729649_at) / RFU, ZNF638 /// ZNF638-IT1 / Fold change vs veh, ZNF638 /// ZNF638-IT1 / RFU, PANK3 / Fold change vs veh, PANK3 / RFU, SH3YL1 / Fold change vs veh, SH3YL1 / RFU, ZEB2 / Fold change vs veh, ZEB2 / RFU, NRIP1 / Fold change vs veh, NRIP1 / RFU, PTTG1IP / Fold change vs veh, PTTG1IP / RFU, CAPN2 / Fold change vs veh, CAPN2 / RFU, MED14 / Fold change vs veh, MED14 / RFU, SNORA58 / Fold change vs veh, SNORA58 / RFU, C1orf63 / Fold change vs veh, C1orf63 / RFU, LRRFIP1 / Fold change vs veh, LRRFIP1 / RFU, NDUFAF7 / Fold change vs veh, NDUFAF7 / RFU, SLC12A2 / Fold change vs veh, SLC12A2 / RFU, IBTK / Fold change vs veh, IBTK / RFU, ESF1 / Fold change vs veh, ESF1 / Fold change vs veh, TMEM50B / RFU, TAOK1 / Fold change vs veh, TAOK1 / RFU, ACBD3 / Fold change vs veh, ACBD3 / RFU, TMA16 / Fold change vs veh, TMA16 / RFU, RWDD3 / Fold change vs veh, RWDD3 / RFU, BCAT1 / Fold change vs veh, BCAT1 / RFU, EDEM3 / Fold change vs veh, EDEM3 / RFU, TMEM33 / Fold change vs veh, TMEM33 / RFU, WDR75 / Fold change vs veh, WDR75 / RFU, AHCTF1 / Fold change vs veh, AHCTF1 / RFU, TFRC / Fold change vs veh, TFRC / RFU, ZDHHC17 / Fold change vs veh, ZDHHC17 / RFU, NOM1 / Fold change vs veh, NOM1 / RFU, ARL8B / Fold change vs veh, ARL8B / RFU, ZBTB11 / Fold change vs veh, ZBTB11 / RFU, TAMM41 / Fold change vs veh, TAMM41 / RFU, KIAA1704 /// LOC100996395 / Fold change vs veh, KIAA1704 /// LOC100996395 / RFU, ING1 / Fold change vs veh, ING1 / RFU, TRMT61B / Fold change vs veh, TRMT61B / RFU, FUBP3 / Fold change vs veh, FUBP3 / RFU, TP53 / Fold change vs veh, TP53 / RFU, TNKS2 / Fold change vs veh, TNKS2 / RFU, ZFP14 / Fold change vs veh, ZFP14 / RFU, ACTR2 / Fold change vs veh, ACTR2 / RFU, PPP3R1 / Fold change vs veh, PPP3R1 / RFU, PIK3R1 / Fold change vs veh, PIK3R1 / RFU, HNRNPA1 / Fold change vs veh, HNRNPA1 / RFU, RNF170 / Fold change vs veh, RNF170 / RFU, ZNF28 / Fold change vs veh, ZNF28 / RFU, RNGTT / Fold change vs veh, RNGTT / RFU, OGT / Fold change vs veh, OGT / RFU, BRD1 / Fold change vs veh, BRD1 / RFU, MARS / Fold change vs veh, MARS / RFU, ZNF655 / Fold change vs veh, ZNF655 / RFU, FAHD1 / Fold change vs veh, FAHD1 / RFU, BDP1 / Fold change vs veh, BDP1 / RFU, LRRCC1 / Fold change vs veh, LRRCC1 / RFU, ARID1A / Fold change vs veh, ARID1A / RFU, ZNF146 / Fold change vs veh, ZNF146 / RFU, ZNF330 / Fold change vs veh, ZNF330 / RFU, GPN3 / Fold change vs veh, GPN3 / RFU, C9orf123 / Fold change vs veh, C9orf123 / RFU, N4BP2L2 / Fold change vs veh, N4BP2L2 / RFU, ARFIP1 / Fold change vs veh, ARFIP1 / RFU, FAM179B / Fold change vs veh, FAM179B / RFU, BCL10 / Fold change vs veh, BCL10 / RFU, UHRF1BP1L / Fold change vs veh, UHRF1BP1L / RFU, BET1 / Fold change vs veh, BET1 / RFU, CNOT2 / Fold change vs veh, CNOT2 / RFU, ZNF268 / Fold change vs veh, ZNF268 / Fold change vs veh, ZNF507 / RFU, DGCR2 / Fold change vs veh, DGCR2 / RFU, WDSUB1 / Fold change vs veh, WDSUB1 / Fold change vs veh, HSP90B1 /// MIR3652 / RFU, ADSS / Fold change vs veh, ADSS / RFU, GK / Fold change vs veh, GK / RFU, ZNF148 / Fold change vs veh, ZNF148 / RFU, TAF9 / Fold change vs veh, TAF9 / RFU, SLC1A5 / Fold change vs veh, SLC1A5 / RFU, SLMO2 / Fold change vs veh, SLMO2 / RFU, ABCC4 / Fold change vs veh, ABCC4 / RFU, LOC101060439 /// RAP1B / Fold change vs veh, LOC101060439 /// RAP1B / RFU, RFX7 / Fold change vs veh, RFX7 / RFU, GTPBP10 / Fold change vs veh, GTPBP10 / RFU, CNEP1R1 / Fold change vs veh, CNEP1R1 / RFU, BIVM-ERCC5 /// ERCC5 / Fold change vs veh, BIVM-ERCC5 /// ERCC5 / RFU, ILF3 / Fold change vs veh, ILF3 / RFU 11762660_at / Fold change /veh 11762660_at / RFU VCAN (11757783_s_at) / Fold change /veh VCAN (11757783_s_at) / RFU DDX43 (11728927_at) / Fold change /veh DDX43 (11728927_at) / RFU KRT8 (11758188_x_at) / Fold change /veh KRT8 (11758188_x_at) / RFU NKD1 (11759106_at) / Fold change /veh NKD1 (11759106_at) / RFU SRD5A1 (11742802_a_at) / Fold change /veh SRD5A1 (11742802_a_at) / RFU TPSAB1 /// TPSB2 (11721975_s_at) / Fold change /veh TPSAB1 /// TPSB2 (11721975_s_at) / RFU GSTM3 (11746129_a_at) / Fold change /veh GSTM3 (11746129_a_at) / RFU IL23R (11737362_x_at) / Fold change /veh IL23R (11737362_x_at) / RFU TMEM51 (11727254_a_at) / Fold change /veh TMEM51 (11727254_a_at) / RFU PIWIL2 (11732686_x_at) / Fold change /veh PIWIL2 (11732686_x_at) / RFU ORM1 (11744905_x_at) / Fold change /veh ORM1 (11744905_x_at) / RFU CCDC152 (11743942_at) / Fold change /veh CCDC152 (11743942_at) / RFU ECM1 (11717891_a_at) / Fold change /veh ECM1 (11717891_a_at) / RFU IL23R (11748794_a_at) / Fold change /veh IL23R (11748794_a_at) / RFU TNFAIP8L3 (11732012_x_at) / Fold change /veh TNFAIP8L3 (11732012_x_at) / RFU MBOAT4 (11741988_at) / Fold change /veh MBOAT4 (11741988_at) / RFU 11764193_at / Fold change /veh 11764193_at / RFU TMEM53 (11763286_at) / Fold change /veh TMEM53 (11763286_at) / RFU MAGEB2 (11727129_at) / Fold change /veh MAGEB2 (11727129_at) / RFU TMEM200A (11744735_a_at) / Fold change /veh TMEM200A (11744735_a_at) / RFU CCDC152 (11751479_a_at) / Fold change /veh CCDC152 (11751479_a_at) / RFU FAM211A (11726209_a_at) / Fold change /veh FAM211A (11726209_a_at) / RFU RGS16 (11746705_a_at) / Fold change /veh RGS16 (11746705_a_at) / RFU VCAN (11755009_s_at) / Fold change /veh VCAN (11755009_s_at) / RFU RHOB (11743442_s_at) / Fold change /veh RHOB (11743442_s_at) / RFU RGS16 (11720943_a_at) / Fold change /veh RGS16 (11720943_a_at) / RFU RGS16 (11720944_at) / Fold change /veh RGS16 (11720944_at) / RFU, VPS4B / Fold change vs veh, VPS4B / RFU, CREB1 / Fold change vs veh, CREB1 / RFU, DNAJC13 / Fold change vs veh, DNAJC13 / RFU, GNAQ / Fold change vs veh, GNAQ / RFU, CDK5R1 / Fold change vs veh, CDK5R1 / RFU, ZRANB3 / Fold change vs veh, ZRANB3 / RFU, CUL4A / Fold change vs veh, CUL4A / RFU, CCNY / Fold change vs veh, CCNY / RFU, UFL1 / Fold change vs veh, UFL1 / RFU, COG3 / Fold change vs veh, COG3 / RFU, DIAPH2 / Fold change vs veh, DIAPH2 / RFU, SKA2 / Fold change vs veh, SKA2 / RFU, AFF3 / Fold change vs veh, AFF3 / RFU, LMF1 / Fold change vs veh, LMF1 / RFU, IPO11 / Fold change vs veh, IPO11 / RFU, DFFB / Fold change vs veh, DFFB / RFU, FOXP1 / Fold change vs veh, FOXP1 / RFU, CARD8 / Fold change vs veh, CARD8 / RFU, STRN3 / Fold change vs veh, STRN3 / RFU, ADK / Fold change vs veh, ADK / RFU, RASSF2 / Fold change vs veh, RASSF2 / RFU, WIPF1 / Fold change vs veh, WIPF1 / RFU, LARP1B / Fold change vs veh, LARP1B / RFU, RASA1 / Fold change vs veh, RASA1 / RFU, RB1 / Fold change vs veh, RB1 / RFU, PPFIA1 / Fold change vs veh, PPFIA1 / RFU, MAT2A / Fold change vs veh, MAT2A / RFU, CCT5 / Fold change vs veh, CCT5 / RFU, WDR92 / Fold change vs veh, WDR92 / RFU, CUX1 / Fold change vs veh, CUX1 / RFU, TTC7A / Fold change vs veh, TTC7A / RFU, TMEM135 / Fold change vs veh, TMEM135 / RFU, DEPTOR / Fold change vs veh, DEPTOR / RFU, CPM / Fold change vs veh, CPM / RFU, DNAJB6 / Fold change vs veh, DNAJB6 / RFU, CACNA2D3 / Fold change vs veh, CACNA2D3 / RFU, DTX4 / Fold change vs veh, DTX4 / RFU, TFCP2 / Fold change vs veh, TFCP2 / RFU, GMCL1 /// GMCL1P1 / Fold change vs veh, GMCL1 /// GMCL1P1 / RFU, AEBP2 / Fold change vs veh, AEBP2 / RFU, SNHG1 /// SNORD22 /// SNORD25 /// SNORD26 /// SNORD27 /// SNORD28 /// SNORD29 /// SNORD31 / Fold change vs veh, SNHG1 /// SNORD22 /// SNORD25 /// SNORD26 /// SNORD27 /// SNORD28 /// SNORD29 /// SNORD31 / Fold change (Aza/veh), C12orf56 (ProbeSet 11735607_a_at) / Fold change (ACY-1035/veh), C12orf56 (ProbeSet 11735607_a_at) / Fold change (Aza/veh), FGFR1OP (ProbeSet 11751329_s_at) / Fold change (ACY-1035/veh), FGFR1OP (ProbeSet 11751329_s_at) / Fold change (Aza/veh), VPS36 (ProbeSet 11739960_a_at) / Fold change (ACY-1035/veh), VPS36 (ProbeSet 11739960_a_at) / RFU SYPL1 (11715823_x_at) / Fold change /veh SYPL1 (11715823_x_at) / RFU IGFBP7 (11715501_s_at) / Fold change /veh IGFBP7 (11715501_s_at) / RFU REEP3 (11722064_at) / Fold change /veh REEP3 (11722064_at) / RFU IGLL1 (11728026_x_at) / Fold change /veh IGLL1 (11728026_x_at): dose or concentration left out as unconfirmed
# Conditions: ProbeSet 11758919_x_at; LIST D
smiles,measurement,value
Nc1ccc(-c2cccs2)cc1NC(=O)c1ccc2c(c1)cc(C1CC1)n2CCN1CCOCC1 [ACY-1035],"RFU, TFCP2",87.13 RFU
